Assay results reported in US12649722B2, “Herbicidal cinnoline derivatives” (SYNGENTA CROP PROTECTION AG, priority 2020, dated 2026).

Tests used:
Assay type in all cases: in vivo
ZEAMX [1] = test: Pre-emergence Test, ZEAMX; details: 1000 g/ha, evaluated after 13 days
[2] = test system: Echinochloa crus-galli (ECHCG); test: Post-emergence Test, ECHCG; details: sprayed after 8 days cultivation, 1000 g/ha, evaluated after 13 days
Procedure: (§1) Seeds of a variety of test species are sown in standard soil in pots (Amaranthus retoflexus (AMARE), Solarium nigrum (SOLNI), Setaria faberi (SETFA), Lolium perenne (LOLPE), Echinochloa crus-galli (ECHCG), Ipornoea hederacea (IPOHE)). After 8 days cultivation under controlled conditions in a glasshouse (at 24° C./16° C., day/night; 14 hours light; 65% humidity), the plants are sprayed with an aqueous spray solution derived from the formulation of the technical active ingredient in acetone/water (50:50) solution containing 0.5% Tween 20 (polyoxyethylene sorbitan monolaurate, CAS RN 9005-64-5). Compounds are applied at 1000 g/ha unless otherwise stated. The test plants are then grown in a glasshouse under controlled conditions in a glasshouse (at 24° C./16° C., day/night; 14 hours light; 65% humidity) and watered twice daily. After 13 days the test is evaluated for the percentage damage caused to the plant. The biological activities are shown in the following table on a five-point scale (5=81-100%; 4=61-80%; 3=41-60%; 2=21-40%; 1=10-20%; 0=0%; −=not tested).

[3] = test system: Ipornoea hederacea (IPOHE); test: Post-emergence Test, IPOHE; details: sprayed after 8 days cultivation, 1000 g/ha, evaluated after 13 days
Procedure: as §1

ABUTH [4] = test: Pre-emergence Test, ABUTH; details: 1000 g/ha, evaluated after 13 days
ABUTH [5] = test: Post-emergence Test, ABUTH; details: sprayed after 8 days cultivation, 1000 g/ha, evaluated after 13 days
Procedure: [The procedure below names another target; the source lists this target under the same test.] as §1

Setaria faberi (SETFA) [6] = test: Pre-emergence Test, SETFA; details: 1000 g/ha, evaluated after 13 days
[7] = test system: Amaranthus retoflexus (AMARE); test: Post-emergence Test, AMARE; details: sprayed after 8 days cultivation, 1000 g/ha, evaluated after 13 days
Procedure: as §1

[8] = test system: Amaranthus retoflexus (AMARE); test: Pre-emergence Test, AMARE; details: 1000 g/ha, evaluated after 13 days
[9] = test system: Ipornoea hederacea (IPOHE); test: Pre-emergence Test, IPOHE; details: 1000 g/ha, evaluated after 13 days
ZEAMX [10] = test: Post-emergence Test, ZEAMX; details: sprayed after 8 days cultivation, 1000 g/ha, evaluated after 13 days
Procedure: [The procedure below names another target; the source lists this target under the same test.] as §1

Setaria faberi (SETFA) [11] = test: Post-emergence Test, SETFA; details: sprayed after 8 days cultivation, 1000 g/ha, evaluated after 13 days
Procedure: as §1

[12] = test system: Echinochloa crus-galli (ECHCG); test: Pre-emergence Test, ECHCG; details: 1000 g/ha, evaluated after 13 days

SMILES	percentage damage caused to the plant, ZEAMX (ZEAMX [1])	percentage damage caused to the plant, ECHCG [2]	percentage damage caused to the plant, IPOHE [3]	percentage damage caused to the plant, ABUTH (ABUTH [4])	percentage damage caused to the plant, ABUTH (ABUTH [5])	percentage damage caused to the plant, SETFA (Setaria faberi (SETFA) [6])	percentage damage caused to the plant, AMARE [7]	percentage damage caused to the plant, AMARE [8]	percentage damage caused to the plant, IPOHE [9]	percentage damage caused to the plant, ZEAMX (ZEAMX [10])	percentage damage caused to the plant, SETFA (Setaria faberi (SETFA) [11])	percentage damage caused to the plant, ECHCG [12]
C=C(OCC)c1cccc2c1c(=O)c(C(=O)OCC)nn2-c1ccc(OC(F)(F)F)cc1 [Compound P29, ethyl 5-(1-ethoxyvinyl)-4-oxo-1-[4-(trifluoromethoxy)phenyl] cinnoline-3-carboxylate]	1 (1=10-20%)	4 (4=61-80%)	0 (0=0%)	1 (1=10-20%)	1 (1=10-20%)	5 (5=81-100%)	0 (0=0%)	1 (1=10-20%)	1 (1=10-20%)	2 (2=21-40%)	3 (3=41-60%)	4 (4=61-80%)
CCOC(=O)c1nn(-c2ccc(OC(F)(F)F)cc2)c2cccc(C(C)=O)c2c1=O [Compound P30, ethyl 5-acetyl-4-oxo-1-[4-(trifluoromethoxy)phenyl] cinnoline-3-carboxylate]	4 (4=61-80%)	4 (4=61-80%)	2 (2=21-40%)	2 (2=21-40%)	3 (3=41-60%)	5 (5=81-100%)	1 (1=10-20%)	1 (1=10-20%)	1 (1=10-20%)	3 (3=41-60%)	4 (4=61-80%)	4 (4=61-80%)
CCOC(=O)c1nn(-c2ccc(OC(F)(F)F)cc2)c2cccc(-n3cc(C(F)(F)F)cn3)c2c1=O [Compound P31, ethyl 4-oxo-1-[4-(trifluoromethoxy)phenyl]-5-[4-(trifluoromethyl)pyrazol-1-yl]cinnoline-3-carboxylate]	0 (0=0%)	0 (0=0%)	0 (0=0%)	0 (0=0%)	0 (0=0%)	0 (0=0%)	0 (0=0%)	0 (0=0%)	0 (0=0%)	0 (0=0%)	0 (0=0%)	0 (0=0%)
CCOC(=O)c1nn(-c2ccc(OC(F)(F)F)cc2)c2cccc(-n3cc(Cl)cn3)c2c1=O [Compound P32, ethyl 5-(4-chloropyrazol-1-yl)-4-oxo-1-[4-(trifluoromethoxy)phenyl] cinnoline-3-carboxylate]	2 (2=21-40%)	3 (3=41-60%)	1 (1=10-20%)	2 (2=21-40%)	1 (1=10-20%)	4 (4=61-80%)	1 (1=10-20%)	2 (2=21-40%)	0 (0=0%)	1 (1=10-20%)	3 (3=41-60%)	4 (4=61-80%)
CCOC(=O)c1nn(-c2ccc(OC(F)(F)F)cc2)c2cccc(-n3cc(C(F)(F)F)nn3)c2c1=O [Compound P33, ethyl 4-oxo-1-[4-(trifluoromethoxy)phenyl]-5-[4-(trifluoromethyl)triazol-1-yl]cinnoline-3-carboxylate]	1 (1=10-20%)	0 (0=0%)	0 (0=0%)	0 (0=0%)	0 (0=0%)	0 (0=0%)	0 (0=0%)	0 (0=0%)	0 (0=0%)	0 (0=0%)	0 (0=0%)	0 (0=0%)
CCOC(=O)c1nn(-c2ccc(OC(F)(F)F)cc2)c2cccc(-n3ncc(C(F)(F)F)n3)c2c1=O [Compound P34, ethyl 4-oxo-1-[4-(trifluoromethoxy)phenyl]-5-[4-(trifluoromethyl)triazol-2-yl]cinnoline-3-carboxylate]	2 (2=21-40%)	0 (0=0%)	0 (0=0%)	0 (0=0%)	0 (0=0%)	0 (0=0%)	0 (0=0%)	0 (0=0%)	0 (0=0%)	0 (0=0%)	0 (0=0%)	0 (0=0%)
CCOC(=O)c1nn(-c2ccc(OC(F)(F)F)cc2)c2cccc(CC#N)c2c1=O [Compound P35, ethyl 5-(cyanomethyl)-4-oxo-1-[4-(trifluoromethoxy)phenyl] cinnoline-3-carboxylate]	2 (2=21-40%)	4 (4=61-80%)	0 (0=0%)	0 (0=0%)	0 (0=0%)	5 (5=81-100%)	0 (0=0%)	1 (1=10-20%)	0 (0=0%)	3 (3=41-60%)	4 (4=61-80%)	5 (5=81-100%)
CCOC(=O)c1nn(-c2ccc(OC(F)(F)F)cc2)c2cccc(C(F)F)c2c1=O [Compound P36, ethyl 5-(difluoromethyl)-4-oxo-1-[4-(trifluoromethoxy)phenyl] cinnoline-3-carboxylate]	0 (0=0%)	0 (0=0%)	0 (0=0%)	1 (1=10-20%)	0 (0=0%)	2 (2=21-40%)	0 (0=0%)	0 (0=0%)	1 (1=10-20%)	0 (0=0%)	1 (1=10-20%)	0 (0=0%)
O=C(O)c1nn(-c2ccc(OC(F)(F)F)cc2)c2cccc(C(F)F)c2c1=O [Compound P37, 5-(difluoromethyl)-4-oxo-1-[4-(trifluoromethoxy)phenyl] cinnoline-3-carboxylic acid]	0 (0=0%)	2 (2=21-40%)	1 (1=10-20%)	0 (0=0%)	0 (0=0%)	0 (0=0%)	1 (1=10-20%)	0 (0=0%)	0 (0=0%)	1 (1=10-20%)	2 (2=21-40%)	0 (0=0%)
CCOC(=O)c1nn(-c2ccc(OC(F)(F)F)cc2)c2cccc(C#N)c2c1=O [Compound P38, ethyl 5-cyano-4-oxo-1-[4-(trifluoromethoxy)phenyl] cinnoline-3-carboxylate]	2 (2=21-40%)	5 (5=81-100%)	3 (3=41-60%)	0 (0=0%)	1 (1=10-20%)	5 (5=81-100%)	3 (3=41-60%)	3 (3=41-60%)	1 (1=10-20%)	2 (2=21-40%)	4 (4=61-80%)	5 (5=81-100%)
